For one assay, the target named is T1, AtPCO4.Ni(II) (Arabidopsis thaliana, UniProt Q9SJI9).
T1 construct: His6 (cleaved yes); made in house
The assay is described as follows: Plate-based intrinsic Trp fluorescence quenching binding assay, AtPCO4.Ni(II). The settings on record: 8 µM AtPCO4.Ni(II) (enzyme:metal 1:2), 0-750 µM peptide, anaerobic, 10 min, 25 °C, 50 mM Tris pH 7.5, 0.4 M NaCl, λex/λem 280/350 nm; ± Std. Error of fit, n = 3. Here is the method:
(§1) Following affinity purification, the His6-tag was cleaved using TEV protease and the cleaved tag was removed using a HisTrap HP column (GE Healthcare). To remove the active site metal which co-purifies with PCO enzymes, concentrated protein fractions were dialysed into 50 mM Tris (pH 7.5), 0.4 M NaCl, 100 mM EDTA and 10 mM 1,10-Phenanthroline followed by dialysis into 50 mM Tris (pH 7.5), 0.4 M NaCl and 0.1% (w/v) Chelex® 100 resin to remove excess EDTA and 1,10-Phenanthroline. Dialysed protein was then purified with a HiLoad 26/600 Superdex 75 prep grade size exclusion column (GE Healthcare) equilibrated with 50 mM Tris (pH 7.5) and 0.4 M NaCl (herein termed assay buffer). Protein purity was assessed with SDS-PAGE. To check that Fe(II) was removed, activity assays of metal-removed protein were conducted as described previously.
(§2) Metal-removed AtPCO4/5 was incubated with Ni(II) (NiCl2.6H2O, Alfa Aesar) at enzyme:metal, 1:2 ratio and diluted to the desired volume in assay buffer to a final enzyme concentration of 8 µM, termed the enzyme master mix.

The target of the next assay is T2, AtPCO5.Ni(II) (Arabidopsis thaliana, UniProt Q9LXT4).
T2 construct: His6 (cleaved yes); made in house
As to the kind of experiment: Plate-based intrinsic Trp fluorescence quenching binding assay, AtPCO5.Ni(II). The conditions noted are these: 8 µM AtPCO5.Ni(II) (enzyme:metal 1:2), 0-750 µM peptide, anaerobic, 10 min, 25 °C, 50 mM Tris pH 7.5, 0.4 M NaCl, λex/λem 280/350 nm; ± Std. Error of fit, n = 3. As for the experimental part:
as §1, §2

Peptide text beside a SMILES is read from it.

T2 sequence (Q9LXT4 whole entry): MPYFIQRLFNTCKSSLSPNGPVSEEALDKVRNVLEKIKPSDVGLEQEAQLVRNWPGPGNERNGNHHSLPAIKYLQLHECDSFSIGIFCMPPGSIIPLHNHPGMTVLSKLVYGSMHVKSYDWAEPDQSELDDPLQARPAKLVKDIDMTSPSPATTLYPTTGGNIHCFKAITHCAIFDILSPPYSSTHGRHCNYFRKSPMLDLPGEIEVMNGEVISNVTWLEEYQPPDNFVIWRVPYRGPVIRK

For the molecule `CC[C@H](C)[C@H](NC(=O)[C@H](C)NC(=O)CNC(=O)CNC(=O)[C@@H](N)CS)C(=O)N[C@@H](CC(C)C)C(=O)N[C@@H](CO)C(=O)N[C@@H](CC(=O)O)C(=O)N[C@H](C(=O)N[C@H](C(=O)N[C@@H](C)C(=O)N1CCC[C@H]1C(=O)N[C@@H](CO)C(=O)N[C@@H](C)C(=O)O)[C@@H](C)CC)[C@@H](C)CC` [HRE1_2-15] (H-CGGAILSDIIAPSA-OH), the dissociation constant Kd at AtPCO4.Ni(II) was 298 ± 37.7 µM; on AtPCO5.Ni(II) it was 223 ± 10.3 µM.

Broadly, the Kd is the equilibrium constant for the complex coming apart. A higher Kd goes with weaker binding.

Source of the values: paper PMC11685595, “Measuring plant cysteine oxidase interactions with substrates using intrinsic tryptophan fluorescence” (Scientific Reports, 2024).
